Results published in patent US9125416B2, “Pesticidal mixtures” (BASF SE, priority 2010, dated 2015).

Legend:
Type in all cases: in vivo
[1] = tested on: green peach aphid (Myzus persicae); experiment: Test 2: Control of Green Peach Aphid, liquid artificial diet under artificial membrane, 96-well-microtiter plates; conditions: aphid mortality and fecundity after 3 days
[2] = tested on: vetch aphid (Megoura viciae); experiment: Test 1: Control of Vetch Aphid, broad bean leaf disks in 24-well-microtiter plates; conditions: sprayed on leaf disks, aphid mortality and fecundity after 5 days
[3] = tested on: boll weevil (Anthonomus grandis); experiment: Test 3: Control of Boll Weevil, insect diet with A. grandis eggs, 24-well-microtiter plates; conditions: sprayed onto insect diet, egg and larval mortality after 5 days

Compound: abamectin
- Oberved Control average ([1]; 0.016 ppm in aphid diet): 0%

Compound: Cc1c(COC(=O)[C@@H]2[C@H](/C=C(\Cl)C(F)(F)F)C2(C)C)cccc1-c1ccccc1 (racemic) [Bifenthrin, bifenthrin]
- Oberved Control average ([1]; 0.08 ppm in aphid diet): 0%
- Oberved Control average ([2]; 2 ppm): 0%

Compound: C[C@]1(COC(=O)C2CC2)[C@@H]2C[C@H](O)[C@@]3(C)Oc4cc(-c5cccnc5)oc(=O)c4[C@H](O)[C@@H]3[C@@]2(C)CC[C@@H]1OC(=O)C1CC1 [Compound I, [(3S,4R,4aR,6S,6aS,12R,12aS,12bS)-3-(cyclopropanecarbonyloxy)-6,12-dihydroxy-4,6a,12b-trimethyl-11-oxo-9-(pyridin-3-yl)-1,2,3,4,4a,5,6,6a,12a,12b-decahydro-11H,12H-benzo[f]pyrano[4,3-b]chromen-4-yl]methyl cyclopropanecarboxylate]
- Oberved Control average ([3]; 0.02 ppm): 0%
- Oberved Control average ([1]; 0.004 ppm in aphid diet): 0%
- Oberved Control average ([2]; 0.004 ppm): 25%

Compound: O=C1C=C(N(CCF)Cc2ccc(Cl)nc2)CO1 [Compound M26.4, 4-{[(6-chloropyrid-3-yl)methyl](2-fluoroethyl)amino}furan-2(5H)-on]
- Oberved Control average ([3]; 2 ppm): 0%
